Results reported in patent US9695155B2, “Herbicidal substituted pyrimidinyloxy benzene compounds” (E. I. DU PONT DE NEMOURS AND COMPANY, priority 2013, dated 2017).

Tests used:
field poppy = experiment: Test D postemergence; type: in vivo, Papaver rhoeas; conditions: Papaver rhoeas, post-emergence
Method in brief: (§1)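 Plant response is a visual score from 0 (no effect) to 100 (complete control) relative to controls. Plants were kept in a controlled growth environment for 7 to 21 days after spraying. Preemergence treatments went onto silt loam soil; postemergence ones onto 1- to 4-leaf seedlings.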

deadnettle = experiment: Test D postemergence; type: in vivo, Lamium amplexicaule; conditions: Lamium amplexicaule, post-emergence
Method in brief: as §1

chamomile = experiment: Test D postemergence; type: in vivo, Matricaria inodora; conditions: Tripleurospermum inodorum, post-emergence
Method in brief: as §1

arrowleaf sida = experiment: Test E postemergence; type: in vivo, Sida rhombifolia; conditions: Sida rhombifolia, post-emergence, read-out: Plant response rating, Arrowleaf Sida
Method in brief: (§2)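 Response was scored visually on a 0-100 scale (100 = complete control) versus controls after 14 to 21 days in the greenhouse. Test chemicals, formulated with surfactant in a non-phytotoxic solvent mixture, had been applied preemergence to seeds in silt loam soil or postemergence to 1- to 4-leaf plants in potting medium.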

windgrass = experiment: Test D postemergence; type: in vivo, Apera spica-venti; conditions: Apera spica-venti, post-emergence
Method in brief: as §1

lambsquarters [1] = experiment: Test D preemergence; type: in vivo, Chenopodium album; conditions: Chenopodium album, pre-emergence
Method in brief: as §1

dayflower = experiment: Test E postemergence; type: in vivo, Commelina virginica; conditions: Commelina virginica, post-emergence, read-out: Plant response rating, Dayflower, VA
Method in brief: as §2

lambsquarters [2] = experiment: Test D postemergence; type: in vivo, Chenopodium album; conditions: Chenopodium album, post-emergence
Method in brief: as §1

chickweed = experiment: Test D preemergence; type: in vivo, Stellaria media; conditions: Stellaria media, pre-emergence
Method in brief: as §1

bromegrass, downy = experiment: Test D preemergence; type: in vivo, Bromus tectorum; conditions: Bromus tectorum, pre-emergence
Method in brief: as §1

Brazilian crabgrass = experiment: Test E postemergence; type: in vivo, Digitaria horizontalis; conditions: Digitaria horizontalis, post-emergence, read-out: Plant response rating, Crabgrass, Brazil
Method in brief: as §2

wild oat = experiment: Test D postemergence; type: in vivo, Avena fatua; conditions: Avena fatua, post-emergence
Method in brief: as §1

winter wheat = experiment: Test D preemergence; type: in vivo, Triticum aestivum; conditions: Triticum aestivum, pre-emergence
Method in brief: as §1

spring wheat = experiment: Test D preemergence; type: in vivo, Triticum aestivum; conditions: Triticum aestivum, pre-emergence
Method in brief: as §1

[3] = Postemergence, 31 g ai/ha, scale 0 to 100
[4] = Postemergence, 62 g ai/ha, scale 0 to 100
[5] = Postemergence, 125 g ai/ha, scale 0 to 100
[6] = postemergence, 8 g ai/ha, scale 0 to 100, 0 no effect, 100 complete control
[7] = postemergence, 16 g ai/ha, scale 0 to 100, 0 no effect, 100 complete control

SMILES: Clc1cnc(Oc2ccccc2-n2cc(Br)cn2)nc1 [Compound 7, 2-[2-(4-bromo-1H-pyrazol-1-yl)phenoxy]-5-chloropyrimidine]
- pest or weed control at 16 g/ha (field poppy; 16 g ai/ha, scale 0-100, read-out: Plant response rating, Field Poppy): 10%
- pest or weed control at 31 g/ha (field poppy; 31 g ai/ha, scale 0 to 100 (0 no effect, 100 complete control), read-out: Plant response rating, Field Poppy): 20%
- pest or weed control at 62 g/ha (field poppy; 62 g ai/ha, scale 0 to 100 (0 no effect, 100 complete control), read-out: Plant response rating, Field Poppy): 50%
- pest or weed control at 125 g/ha (field poppy; 125 g ai/ha, scale 0 to 100 (0 no effect, 100 complete control), read-out: Plant response rating, Field Poppy): 50%
- pest or weed control at 250 g/ha (field poppy; 250 g ai/ha, scale 0 to 100 (0 no effect, 100 complete control), read-out: Plant response rating, Field Poppy): 60%
- pest or weed control at 16 g/ha (deadnettle; 16 g ai/ha, scale 0-100, read-out: Plant response rating, Deadnettle): 10%
- pest or weed control at 31 g/ha (deadnettle; 31 g ai/ha, scale 0 to 100 (0 no effect, 100 complete control), read-out: Plant response rating, Deadnettle): 10%
- pest or weed control at 62 g/ha (deadnettle; 62 g ai/ha, scale 0 to 100 (0 no effect, 100 complete control), read-out: Plant response rating, Deadnettle): 20%
- pest or weed control at 125 g/ha (deadnettle; 125 g ai/ha, scale 0 to 100 (0 no effect, 100 complete control), read-out: Plant response rating, Deadnettle): 30%
- pest or weed control at 250 g/ha (deadnettle; 250 g ai/ha, scale 0 to 100 (0 no effect, 100 complete control), read-out: Plant response rating, Deadnettle): 40%
- pest or weed control at 16 g/ha (chamomile; 16 g ai/ha, scale 0-100, read-out: Plant response rating, Chamomile): 0%
- pest or weed control at 31 g/ha (chamomile; 31 g ai/ha, scale 0 to 100 (0 no effect, 100 complete control), read-out: Plant response rating, Chamomile): 0%
- pest or weed control at 62 g/ha (chamomile; 62 g ai/ha, scale 0 to 100 (0 no effect, 100 complete control), read-out: Plant response rating, Chamomile): 0%
- pest or weed control at 125 g/ha (chamomile; 125 g ai/ha, scale 0 to 100 (0 no effect, 100 complete control), read-out: Plant response rating, Chamomile): 0%
- pest or weed control at 250 g/ha (chamomile; 250 g ai/ha, scale 0 to 100 (0 no effect, 100 complete control), read-out: Plant response rating, Chamomile): 0%
- pest or weed control at 31 g/ha (arrowleaf sida; [3]): 80%
- pest or weed control at 62 g/ha (arrowleaf sida; [4]): 90%
- pest or weed control at 125 g/ha (arrowleaf sida; [5]): 95%
- pest or weed control at 8 g/ha (arrowleaf sida; [6]): 65%
- pest or weed control at 16 g/ha (arrowleaf sida; [7]): 75%
- pest or weed control at 16 g/ha (windgrass; 16 g ai/ha, scale 0-100, read-out: Plant response rating, Windgrass): 0%
- pest or weed control at 31 g/ha (windgrass; 31 g ai/ha, scale 0 to 100 (0 no effect, 100 complete control), read-out: Plant response rating, Windgrass): 0%
- pest or weed control at 62 g/ha (windgrass; 62 g ai/ha, scale 0 to 100 (0 no effect, 100 complete control), read-out: Plant response rating, Windgrass): 0%
- pest or weed control at 125 g/ha (windgrass; 125 g ai/ha, scale 0 to 100 (0 no effect, 100 complete control), read-out: Plant response rating, Windgrass): 10%
- pest or weed control at 250 g/ha (windgrass; 250 g ai/ha, scale 0 to 100 (0 no effect, 100 complete control), read-out: Plant response rating, Windgrass): 25%
- pest or weed control at 16 g/ha (lambsquarters [1]; 16 g ai/ha, scale 0 (no effect) to 100 (complete control), read-out: Plant response rating, Lambsquarters): 0%
- pest or weed control at 31 g/ha (lambsquarters [1]; 31 g ai/ha, scale 0-100, read-out: Plant response rating, Lambsquarters): 0%
- pest or weed control at 62 g/ha (lambsquarters [1]; 62 g ai/ha, scale 0-100, read-out: Plant response rating, Lambsquarters): 30%
- pest or weed control at 125 g/ha (lambsquarters [1]; 125 g ai/ha, scale 0-100, read-out: Plant response rating, Lambsquarters): 40%
- pest or weed control at 250 g/ha (lambsquarters [1]; 250 g ai/ha, scale 0-100, read-out: Plant response rating, Lambsquarters): 60%
- pest or weed control at 31 g/ha (dayflower; [3]): 50%
- pest or weed control at 62 g/ha (dayflower; [4]): 70%
- pest or weed control at 125 g/ha (dayflower; [5]): 90%
- pest or weed control at 8 g/ha (dayflower; [6]): 10%
- pest or weed control at 16 g/ha (dayflower; [7]): 40%
- pest or weed control at 16 g/ha (lambsquarters [2]; 16 g ai/ha, scale 0-100, read-out: Plant response rating, Lambsquarters): 70%
- pest or weed control at 31 g/ha (lambsquarters [2]; 31 g ai/ha, scale 0 to 100 (0 no effect, 100 complete control), read-out: Plant response rating, Lambsquarters): 70%
- pest or weed control at 62 g/ha (lambsquarters [2]; 62 g ai/ha, scale 0 to 100 (0 no effect, 100 complete control), read-out: Plant response rating, Lambsquarters): 80%
- pest or weed control at 125 g/ha (lambsquarters [2]; 125 g ai/ha, scale 0 to 100 (0 no effect, 100 complete control), read-out: Plant response rating, Lambsquarters): 90%
- pest or weed control at 250 g/ha (lambsquarters [2]; 250 g ai/ha, scale 0 to 100 (0 no effect, 100 complete control), read-out: Plant response rating, Lambsquarters): 100%
- pest or weed control at 16 g/ha (chickweed; 16 g ai/ha, scale 0 (no effect) to 100 (complete control), read-out: Plant response rating, Chickweed): 0%
- pest or weed control at 31 g/ha (chickweed; 31 g ai/ha, scale 0-100, read-out: Plant response rating, Chickweed): 0%
- pest or weed control at 62 g/ha (chickweed; 62 g ai/ha, scale 0-100, read-out: Plant response rating, Chickweed): 10%
- pest or weed control at 125 g/ha (chickweed; 125 g ai/ha, scale 0-100, read-out: Plant response rating, Chickweed): 90%
- pest or weed control at 250 g/ha (chickweed; 250 g ai/ha, scale 0-100, read-out: Plant response rating, Chickweed): 95%
- pest or weed control at 16 g/ha (bromegrass, downy; 16 g ai/ha, scale 0 (no effect) to 100 (complete control), read-out: Plant response rating, Bromegrass, Downy): 0%
- pest or weed control at 31 g/ha (bromegrass, downy; 31 g ai/ha, scale 0-100, read-out: Plant response rating, Bromegrass, Downy): 0%
- pest or weed control at 62 g/ha (bromegrass, downy; 62 g ai/ha, scale 0-100, read-out: Plant response rating, Bromegrass, Downy): 0%
- pest or weed control at 125 g/ha (bromegrass, downy; 125 g ai/ha, scale 0-100, read-out: Plant response rating, Bromegrass, Downy): 0%
- pest or weed control at 250 g/ha (bromegrass, downy; 250 g ai/ha, scale 0-100, read-out: Plant response rating, Bromegrass, Downy): 0%
- pest or weed control at 31 g/ha (Brazilian crabgrass; [3]): 10%
- pest or weed control at 62 g/ha (Brazilian crabgrass; [4]): 20%
- pest or weed control at 125 g/ha (Brazilian crabgrass; [5]): 30%
- pest or weed control at 8 g/ha (Brazilian crabgrass; [6]): 0%
- pest or weed control at 16 g/ha (Brazilian crabgrass; [7]): 0%
- pest or weed control at 16 g/ha (wild oat; 16 g ai/ha, scale 0-100, read-out: Plant response rating, Oat, Wild): 0%
- pest or weed control at 31 g/ha (wild oat; 31 g ai/ha, scale 0 to 100 (0 no effect, 100 complete control), read-out: Plant response rating, Oat, Wild): 0%
- pest or weed control at 62 g/ha (wild oat; 62 g ai/ha, scale 0 to 100 (0 no effect, 100 complete control), read-out: Plant response rating, Oat, Wild): 0%
- pest or weed control at 125 g/ha (wild oat; 125 g ai/ha, scale 0 to 100 (0 no effect, 100 complete control), read-out: Plant response rating, Oat, Wild): 10%
- pest or weed control at 250 g/ha (wild oat; 250 g ai/ha, scale 0 to 100 (0 no effect, 100 complete control), read-out: Plant response rating, Oat, Wild): 25%
- plant injury at 16 g/ha (winter wheat; 16 g ai/ha, scale 0 (no effect) to 100 (complete control), read-out: Plant response rating, Wheat, Winter): 0%
- plant injury at 31 g/ha (winter wheat; 31 g ai/ha, scale 0 (no effect) to 100 (complete control), read-out: Plant response rating, Wheat, Winter): 0%
- plant injury at 62 g/ha (winter wheat; 62 g ai/ha, scale 0-100, read-out: Plant response rating, Wheat, Winter): 0%
- plant injury at 125 g/ha (winter wheat; 125 g ai/ha, scale 0-100, read-out: Plant response rating, Wheat, Winter): 5%
- plant injury at 250 g/ha (winter wheat; 250 g ai/ha, scale 0-100, read-out: Plant response rating, Wheat, Winter): 10%
- plant injury at 16 g/ha (spring wheat; 16 g ai/ha, scale 0 (no effect) to 100 (complete control), read-out: Plant response rating, Wheat, Spring): 0%
- plant injury at 31 g/ha (spring wheat; 31 g ai/ha, scale 0 (no effect) to 100 (complete control), read-out: Plant response rating, Wheat, Spring): 0%
- plant injury at 62 g/ha (spring wheat; 62 g ai/ha, scale 0-100, read-out: Plant response rating, Wheat, Spring): 0%
- plant injury at 125 g/ha (spring wheat; 125 g ai/ha, scale 0-100, read-out: Plant response rating, Wheat, Spring): 0%
- plant injury at 250 g/ha (spring wheat; 250 g ai/ha, scale 0-100, read-out: Plant response rating, Wheat, Spring): 0%
